In the supplement of paper PMC10307832:

Key:
Assay in all cases: relative viability (nuclei count vs DMSO), 5 days (fraction); higher = more cells survive
BAM7 + Olaparib = compound: CCOC1=CC=CC=C1N=NC2=C(NN(C2=O)C3=NC(=CS3)C4=CC=CC=C4)C [BAM7] + O=C(c1cc(Cc2n[nH]c(=O)c3ccccc23)ccc1F)N1CCN(C(=O)C2CC2)CC1 [Olaparib] (partner 8 µM)
How it was run: (§1)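 Nuclei were stained with Hoechst during a one-step fixation (final 0.05% Triton X-100, 1% formaldehyde, 1 ug/ml Hoechst) carried out 5 days after dosing, then counted on 4× images. The cells, lung cancer lines in 1536-well plates, had been dosed by pin tool the day after seeding with one drug alone or a fixed anchor-drug dose plus five library-drug doses (not always all listed) in √10 steps. Relative viability is the nuclei count in treated wells divided by that in vehicle wells, and each value is the median of duplicate plates.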

BAM7 + Linsitinib = compound: CCOC1=CC=CC=C1N=NC2=C(NN(C2=O)C3=NC(=CS3)C4=CC=CC=C4)C [BAM7] + C[C@]1(O)C[C@@H](c2nc(-c3ccc4ccc(-c5ccccc5)nc4c3)c3c(N)nccn32)C1 [Linsitinib] (partner 1 µM)
How it was run: as §1

BAM7 + Lapatinib = compound: CCOC1=CC=CC=C1N=NC2=C(NN(C2=O)C3=NC(=CS3)C4=CC=CC=C4)C [BAM7] + CS(=O)(=O)CCNCc1ccc(-c2ccc3ncnc(Nc4ccc(OCc5cccc(F)c5)c(Cl)c4)c3c2)o1 [Lapatinib] (partner 2 µM)
How it was run: as §1

BAM7 + Bortezomib = compound: CCOC1=CC=CC=C1N=NC2=C(NN(C2=O)C3=NC(=CS3)C4=CC=CC=C4)C [BAM7] + CC(C)C[C@H](NC(=O)[C@H](Cc1ccccc1)NC(=O)c1cnccn1)B(O)O [Bortezomib] (partner 0.002 µM)
How it was run: as §1

BAM7 + Tozasertib = compound: CCOC1=CC=CC=C1N=NC2=C(NN(C2=O)C3=NC(=CS3)C4=CC=CC=C4)C [BAM7] + Cc1cc(Nc2cc(N3CCN(C)CC3)nc(Sc3ccc(NC(=O)C4CC4)cc3)n2)n[nH]1 [Tozasertib] (partner 0.1 µM)
How it was run: as §1

EPLC-272H
relative viability (BAM7 + Olaparib; first compound 0.5 µM): 0.465
relative viability (BAM7 + Olaparib; first compound 5 µM): 0.935
relative viability (BAM7 + Olaparib; first compound 15.81 µM): 0.594
relative viability (BAM7 + Olaparib; first compound 50 µM): 0.651
relative viability (BAM7 + Linsitinib; first compound 0.5 µM): 1.45
relative viability (BAM7 + Linsitinib; first compound 5 µM): 1.11
relative viability (BAM7 + Linsitinib; first compound 15.81 µM): 1.33
relative viability (BAM7 + Linsitinib; first compound 50 µM): 1.24
relative viability (BAM7 + Lapatinib; first compound 0.5 µM): 0.879
relative viability (BAM7 + Lapatinib; first compound 5 µM): 0.924
relative viability (BAM7 + Lapatinib; first compound 15.81 µM): 0.94
relative viability (BAM7 + Lapatinib; first compound 50 µM): 0.963
relative viability (BAM7 + Bortezomib; first compound 0.5 µM): 0.893
relative viability (BAM7 + Bortezomib; first compound 5 µM): 0.969
relative viability (BAM7 + Bortezomib; first compound 15.81 µM): 0.827
relative viability (BAM7 + Bortezomib; first compound 50 µM): 0.942
relative viability (BAM7 + Tozasertib; first compound 0.5 µM): 0.252
relative viability (BAM7 + Tozasertib; first compound 15.81 µM): 0.275
relative viability (BAM7 + Tozasertib; first compound 50 µM): 0.334

NCI-H2126
relative viability (BAM7 + Olaparib; first compound 0.5 µM): 0.892
relative viability (BAM7 + Olaparib; first compound 5 µM): 0.877
relative viability (BAM7 + Olaparib; first compound 15.81 µM): 0.905
relative viability (BAM7 + Olaparib; first compound 50 µM): 0.92
relative viability (BAM7 + Linsitinib; first compound 0.5 µM): 0.7
relative viability (BAM7 + Linsitinib; first compound 5 µM): 0.63
relative viability (BAM7 + Linsitinib; first compound 15.81 µM): 0.706
relative viability (BAM7 + Linsitinib; first compound 50 µM): 0.704
relative viability (BAM7 + Lapatinib; first compound 0.5 µM): 0.726
relative viability (BAM7 + Lapatinib; first compound 5 µM): 0.664
relative viability (BAM7 + Lapatinib; first compound 15.81 µM): 0.743
relative viability (BAM7 + Lapatinib; first compound 50 µM): 0.755
relative viability (BAM7 + Bortezomib; first compound 0.5 µM): 1.07
relative viability (BAM7 + Bortezomib; first compound 5 µM): 1
relative viability (BAM7 + Bortezomib; first compound 15.81 µM): 1.08
relative viability (BAM7 + Bortezomib; first compound 50 µM): 1.08
relative viability (BAM7 + Tozasertib; first compound 0.5 µM): 0.836
relative viability (BAM7 + Tozasertib; first compound 5 µM): 0.679
relative viability (BAM7 + Tozasertib; first compound 15.81 µM): 0.643
relative viability (BAM7 + Tozasertib; first compound 50 µM): 0.74

LXF-289
relative viability (BAM7 + Olaparib; first compound 0.5 µM): 1.17
relative viability (BAM7 + Olaparib; first compound 5 µM): 1.05
relative viability (BAM7 + Olaparib; first compound 15.81 µM): 1.02
relative viability (BAM7 + Olaparib; first compound 50 µM): 1.09
relative viability (BAM7 + Linsitinib; first compound 0.5 µM): 1.02
relative viability (BAM7 + Linsitinib; first compound 5 µM): 1.04
relative viability (BAM7 + Linsitinib; first compound 15.81 µM): 0.955
relative viability (BAM7 + Linsitinib; first compound 50 µM): 0.962
relative viability (BAM7 + Lapatinib; first compound 0.5 µM): 0.947
relative viability (BAM7 + Lapatinib; first compound 5 µM): 0.951
relative viability (BAM7 + Lapatinib; first compound 15.81 µM): 0.913
relative viability (BAM7 + Lapatinib; first compound 50 µM): 0.851
relative viability (BAM7 + Bortezomib; first compound 0.5 µM): 1.07
relative viability (BAM7 + Bortezomib; first compound 5 µM): 1.1
relative viability (BAM7 + Bortezomib; first compound 15.81 µM): 1.02
relative viability (BAM7 + Bortezomib; first compound 50 µM): 1.01
relative viability (BAM7 + Tozasertib; first compound 0.5 µM): 0.206
relative viability (BAM7 + Tozasertib; first compound 5 µM): 0.215
relative viability (BAM7 + Tozasertib; first compound 15.81 µM): 0.183
relative viability (BAM7 + Tozasertib; first compound 50 µM): 0.19

NCI-H2009
relative viability (BAM7 + Olaparib; first compound 0.5 µM): 0.716
relative viability (BAM7 + Olaparib; first compound 5 µM): 0.727
relative viability (BAM7 + Olaparib; first compound 15.81 µM): 0.662
relative viability (BAM7 + Olaparib; first compound 50 µM): 0.663
relative viability (BAM7 + Linsitinib; first compound 0.5 µM): 1.27
relative viability (BAM7 + Linsitinib; first compound 5 µM): 1.2
relative viability (BAM7 + Linsitinib; first compound 15.81 µM): 1.15
relative viability (BAM7 + Linsitinib; first compound 50 µM): 1.16
relative viability (BAM7 + Lapatinib; first compound 0.5 µM): 1.03
relative viability (BAM7 + Lapatinib; first compound 5 µM): 1.06
relative viability (BAM7 + Lapatinib; first compound 15.81 µM): 0.898
relative viability (BAM7 + Lapatinib; first compound 50 µM): 0.938
relative viability (BAM7 + Bortezomib; first compound 0.5 µM): 0.976
relative viability (BAM7 + Bortezomib; first compound 5 µM): 1.29
relative viability (BAM7 + Bortezomib; first compound 15.81 µM): 0.926
relative viability (BAM7 + Bortezomib; first compound 50 µM): 0.971
relative viability (BAM7 + Tozasertib; first compound 0.5 µM): 0.832
relative viability (BAM7 + Tozasertib; first compound 5 µM): 0.763
relative viability (BAM7 + Tozasertib; first compound 15.81 µM): 0.62
relative viability (BAM7 + Tozasertib; first compound 50 µM): 0.608

NCI-H2405
relative viability (BAM7 + Olaparib; first compound 0.5 µM): 0.936
relative viability (BAM7 + Olaparib; first compound 5 µM): 0.936
relative viability (BAM7 + Olaparib; first compound 15.81 µM): 0.889
relative viability (BAM7 + Olaparib; first compound 50 µM): 0.908
relative viability (BAM7 + Linsitinib; first compound 0.5 µM): 1.02
relative viability (BAM7 + Linsitinib; first compound 5 µM): 0.881
relative viability (BAM7 + Linsitinib; first compound 15.81 µM): 0.865
relative viability (BAM7 + Linsitinib; first compound 50 µM): 1.09
relative viability (BAM7 + Lapatinib; first compound 0.5 µM): 1.1
relative viability (BAM7 + Lapatinib; first compound 5 µM): 1.26
relative viability (BAM7 + Lapatinib; first compound 15.81 µM): 1.12
relative viability (BAM7 + Lapatinib; first compound 50 µM): 1.1
relative viability (BAM7 + Bortezomib; first compound 0.5 µM): 1.02
relative viability (BAM7 + Bortezomib; first compound 5 µM): 1.04
relative viability (BAM7 + Bortezomib; first compound 15.81 µM): 1.01
relative viability (BAM7 + Bortezomib; first compound 50 µM): 0.991
relative viability (BAM7 + Tozasertib; first compound 0.5 µM): 0.721
relative viability (BAM7 + Tozasertib; first compound 5 µM): 0.809
relative viability (BAM7 + Tozasertib; first compound 15.81 µM): 0.73
relative viability (BAM7 + Tozasertib; first compound 50 µM): 0.721

NCI-H1755
relative viability (BAM7 + Olaparib; first compound 0.5 µM): 0.858
relative viability (BAM7 + Olaparib; first compound 5 µM): 0.939
relative viability (BAM7 + Olaparib; first compound 15.81 µM): 0.858
relative viability (BAM7 + Olaparib; first compound 50 µM): 0.899
relative viability (BAM7 + Linsitinib; first compound 0.5 µM): 1.01
relative viability (BAM7 + Linsitinib; first compound 5 µM): 1.06
relative viability (BAM7 + Linsitinib; first compound 15.81 µM): 1.02
relative viability (BAM7 + Linsitinib; first compound 50 µM): 0.978
relative viability (BAM7 + Lapatinib; first compound 0.5 µM): 1.06
relative viability (BAM7 + Lapatinib; first compound 5 µM): 1.13
relative viability (BAM7 + Lapatinib; first compound 15.81 µM): 1.04
relative viability (BAM7 + Lapatinib; first compound 50 µM): 0.979
relative viability (BAM7 + Bortezomib; first compound 0.5 µM): 1.02
relative viability (BAM7 + Bortezomib; first compound 5 µM): 1.01
relative viability (BAM7 + Bortezomib; first compound 15.81 µM): 0.949
relative viability (BAM7 + Bortezomib; first compound 50 µM): 0.95
relative viability (BAM7 + Tozasertib; first compound 0.5 µM): 0.602
relative viability (BAM7 + Tozasertib; first compound 5 µM): 0.615
relative viability (BAM7 + Tozasertib; first compound 15.81 µM): 0.55
relative viability (BAM7 + Tozasertib; first compound 50 µM): 0.644

HCC-78
relative viability (BAM7 + Olaparib; first compound 0.5 µM): 1.02
relative viability (BAM7 + Olaparib; first compound 5 µM): 0.759
relative viability (BAM7 + Olaparib; first compound 15.81 µM): 0.631
relative viability (BAM7 + Olaparib; first compound 50 µM): 0.815
relative viability (BAM7 + Linsitinib; first compound 0.5 µM): 0.544
relative viability (BAM7 + Linsitinib; first compound 5 µM): 0.393
relative viability (BAM7 + Linsitinib; first compound 15.81 µM): 0.376
relative viability (BAM7 + Linsitinib; first compound 50 µM): 0.585
relative viability (BAM7 + Lapatinib; first compound 0.5 µM): 0.74
relative viability (BAM7 + Lapatinib; first compound 5 µM): 0.69
relative viability (BAM7 + Lapatinib; first compound 15.81 µM): 0.98
relative viability (BAM7 + Lapatinib; first compound 50 µM): 1.11
relative viability (BAM7 + Bortezomib; first compound 0.5 µM): 0.586
relative viability (BAM7 + Bortezomib; first compound 5 µM): 0.63
relative viability (BAM7 + Bortezomib; first compound 15.81 µM): 0.419
relative viability (BAM7 + Bortezomib; first compound 50 µM): 0.608
relative viability (BAM7 + Tozasertib; first compound 0.5 µM): 0.428
relative viability (BAM7 + Tozasertib; first compound 5 µM): 0.371
relative viability (BAM7 + Tozasertib; first compound 15.81 µM): 0.446
relative viability (BAM7 + Tozasertib; first compound 50 µM): 0.393

LOU-NH91
relative viability (BAM7 + Olaparib; first compound 0.5 µM): 0.949
relative viability (BAM7 + Olaparib; first compound 5 µM): 0.955
relative viability (BAM7 + Olaparib; first compound 15.81 µM): 0.894
relative viability (BAM7 + Olaparib; first compound 50 µM): 0.893
relative viability (BAM7 + Linsitinib; first compound 0.5 µM): 0.912
relative viability (BAM7 + Linsitinib; first compound 5 µM): 0.936
relative viability (BAM7 + Linsitinib; first compound 15.81 µM): 0.893
relative viability (BAM7 + Linsitinib; first compound 50 µM): 0.996
relative viability (BAM7 + Lapatinib; first compound 0.5 µM): 0.749
relative viability (BAM7 + Lapatinib; first compound 5 µM): 0.822
relative viability (BAM7 + Lapatinib; first compound 15.81 µM): 0.767
relative viability (BAM7 + Lapatinib; first compound 50 µM): 0.819
relative viability (BAM7 + Bortezomib; first compound 0.5 µM): 0.476
relative viability (BAM7 + Bortezomib; first compound 5 µM): 0.508
relative viability (BAM7 + Bortezomib; first compound 15.81 µM): 0.546
relative viability (BAM7 + Bortezomib; first compound 50 µM): 0.486
relative viability (BAM7 + Tozasertib; first compound 0.5 µM): 0.667
relative viability (BAM7 + Tozasertib; first compound 5 µM): 0.702
relative viability (BAM7 + Tozasertib; first compound 15.81 µM): 0.674
relative viability (BAM7 + Tozasertib; first compound 50 µM): 0.689
